Data taken from ChEMBL document CHEMBL1154198, “Chemical genetics of Plasmodium falciparum” (Nature, 2010).

How the values were obtained:
[1] = tested on: Plasmodium falciparum; assay: ST_JUDE: Plasmodium falciparum K1 EC50 (uM) as measured by SYBR green dye; format: functional, organism-based
[2] = tested on: Plasmodium falciparum; assay: ST_JUDE: Plasmodium falciparum 3D7 EC50 (uM) as measured by SYBR green dye; format: functional, organism-based

EC50 [1] [µM] | EC50 [2] [µM] | Compound
7.53 | > 15 | CCOc1ccccc1C(=O)NCCc1csc(-c2ccc(OC)cc2)n1
> 15 | > 15 | COCCn1/c(=N/C(=O)c2nc3ccccc3s2)sc2cc(S(C)(=O)=O)ccc21
2.25 | 1.48 | CCOc1cc(-c2nc(-c3ccc(OC)cc3)c(-c3ccccc3)[nH]2)ccc1O
> 15 | > 15 | CCOCCCn1c(=N)c(C(=O)NCc2cccnc2)cc2c(=O)n3cccc(C)c3nc21
> 15 | 11.9 | Cc1ccc(-c2n(C)c3ccccc3[n+]2C)cc1
1.17 | 0.841 | CCc1ccccc1NC(=O)C1c2ccccc2C(=O)N2CCc3ccccc3C12 (configuration not stated)
10.4 | 7.64 | Cc1ccc(Cn2c(=N)n(CC(=O)c3ccc([N+](=O)[O-])cc3)c3ccccc32)cc1
> 15 | > 15 | Cc1nc2ccccc2c(=O)n1-c1cccc(NC(=O)c2ccc(C(F)(F)F)cc2)c1
0.057 | 0.0689 | CCCCCOc1ccc(NC2=C(N3CCCCC3)C(=O)c3ccccc3C2=O)cc1
> 15 | > 15 | CCOc1cc(/C=C/c2ccc3cccc(O)c3n2)ccc1O
0.479 | 1.12 | CCCN1CC=C2C(C#N)=C(N)C(C#N)(C#N)C(c3ccccc3C(F)(F)F)C2C1 (configuration not stated)
> 15 | > 15 | Cc1c(Cl)cccc1NC(=O)c1ccccc1[N+](=O)[O-]
1.87 | 1.83 | CCc1ccc(NC(=O)C2c3ccccc3C(=O)N(C3CCCC3)C2c2cccs2)cc1 (configuration not stated)
3.8 | 3.54 | CCc1ccc(NC(=O)C2c3cc(OC)c(OC)cc3C(=O)N(C)C2c2cccs2)cc1 (configuration not stated)
> 15 | > 15 | CCOC(=O)c1cnc2ccc(OCC)cc2c1NCCc1ccccc1
4.06 | 0.506 | CCCCNC(=O)CSCc1cnn(-c2ccccc2)c1-n1cccc1

EC50 [1] [µM] | EC50 [2] [µM] | Compound
1.62 | > 15 | COc1cccc(NC(=O)Cn2c(C)c(C(=O)C(F)(F)F)c3ccccc32)c1
2.43 | 1.33 | Cc1ccc(N2C(=O)CS(=O)(=O)C23C(=O)N(Cc2ccccc2Cl)c2ccccc23)cc1C (configuration not stated)
> 15 | > 15 | CC(C)(C)C(=O)Cn1ccc(=N)c2ccccc21
3.54 | 3.19 | CN(C)CCNC(=O)c1ccc2c(c1)sc1nc(-c3ccc(F)cc3)cn12
2.25 | 1.82 | COCc1cc(CN2CCN(c3cccc(C(F)(F)F)c3)CC2)c(O)c2ncccc12
10.2 | > 15 | C#CCOc1ccc(C2C(C#N)=C(N)Oc3cc(O)ccc32)cc1OCC (configuration not stated)
2.48 | 2.01 | COCCN1C(=O)c2ccccc2C(C(=O)Nc2ccc(OC)c(Cl)c2)C1c1cccs1 (configuration not stated)
4.01 | 0.722 | C=CCn1c(SCC(=O)Nc2ccccc2OC)nc2sc(C)cc2c1=O
> 15 | > 15 | CCOC(=O)c1c(NC(=O)C(c2ccccc2)c2ccccc2)sc(C(=O)N(CC)CC)c1C
> 15 | 2.48 | CCOC(=O)c1c(N)n(-c2ccc(F)cc2)c2nc3ccccc3nc12
5.39 | 2.67 | COc1cccc(C(=O)NC(NC(=S)Nc2ccccc2Cl)C(Cl)(Cl)Cl)c1 (configuration not stated)
4.28 | 2.27 | CCC(=O)NC(c1ccccc1OC)c1ccc2cccnc2c1O (configuration not stated)
> 15 | 0.88 | Oc1c(CN2CCN(c3cccc(Cl)c3)CC2)cc(Br)c2cccnc12
0.335 | > 15 | CCN(CC)C(=O)CSc1nc2cc(OC)c(OC)cc2c2nc(-c3ccccc3)nn12
0.973 | 1.26 | CCc1cccc2c(C#N)cn(CCOc3ccccc3F)c12

Second part, the compound before the results:

Compound | EC50 [1] [µM] | EC50 [2] [µM]
COc1ccc2nc(C)cc(Nc3cccc(Cl)c3)c2c1 | 9.41 | 1.24
O=C(NNc1nc2ccc(F)cc2s1)c1ccc(F)cc1 | 7.1 | > 15
O=[N+]([O-])c1ccc2ncnc(Nc3cc(Cl)ccc3O)c2c1 | 1.75 | 1.62
COc1ccc(Cl)cc1NC(=S)N1CCN(c2ccc(C#N)cc2)CC1 | 1.29 | 0.857
CC[n+]1c(/C=C/c2ccc(N(C)C)cc2)sc2cc(NC(C)=O)ccc21 | 4.32 | 3.31
COc1ccc(-c2nn(C)c3sc(C(=O)Nc4cccc(C(F)(F)F)c4)cc23)cc1OC | > 15 | > 15
O=C(Nc1ccc(-c2nc3cc(NC(=O)c4ccc(Br)o4)ccc3[nH]2)cc1)c1ccc(Br)o1 | 3.23 | 2.59
O=C1CC(c2ccc(Cl)c(Cl)c2)C2=C(CC(c3ccc(F)cc3)CC2=O)N1 (configuration not stated) | 4.38 | > 15
COC(=O)Nc1ccc(S(=O)(=O)ON=C2C=C(C(C)(C)C)C(=O)C(C(C)(C)C)=C2)cc1 | 0.389 | 6.84
COc1ccc(OC)c2sc(N(Cc3cccnc3)C(=O)c3cccc(Cl)c3)nc12 | 1.65 | > 15
Cc1cc(C)c(C)c(OCCCCCCN2CCCC2)c1 | > 15 | > 15
O=C1C(Nc2ccc(Br)cc2)=C(N2CCOCC2)C(=O)c2ccccc21 | 0.377 | 1.79
N=C(N/N=C\c1ccc(F)cc1)N/N=C\c1ccc(F)cc1 | 4.74 | 0.753
CCN(CC)c1cc(C)c2cc(NC(=O)c3ccc(Cl)c([N+](=O)[O-])c3)ccc2n1 | > 15 | > 15
CCC(C)c1ccccc1OCC(O)CNC1CCCC1 (configuration not stated) | 0.959 | 1.73
CC1=C(C)CC2C(=O)C3=C(C(=O)C2C1)C1c2ccccc2C3c2ccccc21 (configuration not stated) | 1.62 | 3.15
CN1CCN(c2cc(N3CCN(C)CC3)c([N+](=O)[O-])cc2C2Nc3ccc4ccccc4c3C3=C2C(=O)CC(C)(C)C3)CC1 (configuration not stated) | > 15 | 3.44
C=CCOc1ccc(C(=O)Nc2nonc2-c2ccc(OC)c(OC)c2)cc1 | 0.689 | 0.591
O=C(CN1CCN(C2CCCC2)CC1)Nc1ccc([N+](=O)[O-])cc1C(=O)Nc1ccccc1F | > 15 | > 15
Cc1ccc(Nc2cc(C)nc(Nc3ccc(NS(=O)(=O)c4ccc(F)cc4)cc3)n2)cc1 | 7.04 | 0.746
CC(C)Cc1cc(C(=O)NCC2Cc3cc(Cl)cc(-c4ccncc4)c3O2)no1 (configuration not stated) | 6.45 | > 15
C[n+]1ccn2c3c(c4cc(C5CCCCC5)ccc42)CCCc31 | 2.34 | > 15
Oc1c(C(Nc2ccccn2)c2ccc(Cl)cc2)ccc2cccnc12 (configuration not stated) | 4.11 | 2.72
CCCO/C(O)=C1\C(C)=NC2=C(C(=O)CC(c3ccc(Cl)cc3)C2)C1c1cccc(O)c1 (configuration not stated) | 4.47 | 4.83
Clc1cccc(C2Nc3ccccc3-c3nc4ccccc4n32)c1 (configuration not stated) | 4.63 | > 15
CCN(CCN(C)C)C(=O)c1csc(-c2ccc(OC(F)(F)F)cc2)n1 | > 15 | 4.51
O=C(c1ccc(C(F)(F)F)cc1)N(Cc1ccc(OCc2ccc(F)cc2)cc1)Cc1cccnc1 | > 15 | > 15
CCOC(=O)c1ccc2nc(C)cc(Nc3ccc(N(C)C)cc3)c2c1 | 3.81 | 2.85

Compound | EC50 [1] [µM] | EC50 [2] [µM]
CCCOc1ccc(Oc2nc(NCC)nc(OC)n2)nn1 | 4.24 | 1.87
Cc1cccc2sc(NNC(=O)c3ccc(S(=O)(=O)N4CCCCC4C)cc3)nc12 (configuration not stated) | > 15 | > 15
CCOC(=O)c1cnc2c(C)cccc2c1NCCCN1CCOCC1 | 1.43 | 0.647
CCN(CC)c1ccc(/C=C/C(=O)NCCN2CCC(N(C)C3CCCCC3C)CC2)cc1 (configuration not stated) | > 15 | 2.29
Cc1c(C(=O)Nc2ccc(Cl)cc2Cl)cccc1[N+](=O)[O-] | > 15 | > 15
CCCNC(=O)C1CN1Cc1ccc(OC)cc1 (configuration not stated) | 6.92 | 6.81
Cc1ccc2[nH]c(-c3cccc(-c4nc5cc(C)ccc5[nH]4)n3)nc2c1 | 7.6 | 3.23
Cc1ccc(NC(=O)c2csc3c2CCCCC3)c(C)c1 | > 15 | 1.77
OC(CN1CCN(C/C=C/c2ccccc2)CC1)Cn1c2ccccc2c2ccccc21 (configuration not stated) | 0.65 | 1.4
CC(Cc1ccccc1)NCCCCCCCCCNC(C)Cc1ccccc1 (configuration not stated) | 1.17 | 3.76
COc1cc2nnc(/C=C/C(C)=O)c(-c3ccc(C)o3)c2cc1OC | > 15 | > 15
CCN(CC)CCOc1ccc2c(c1)C(=NO)c1cc(OCCN(CC)CC)ccc1-2 | 2.27 | 1.49
Cc1cc(NC(=O)CSc2ccc3nnc(-c4ccc(Cl)cc4)n3n2)no1 | > 15 | > 15
O=S(=O)(NCC(c1cccnc1)N1CCN(c2ccc(F)cc2)CC1)c1ccc(Cl)cc1 (configuration not stated) | > 15 | > 15
O=C(N/N=C/c1cc(Cl)cc(Cl)c1O)NC12CC3CC(CC(C3)C1)C2 | > 15 | > 15
CC(=O)CCc1ccc(OCCN2CCOCC2)cc1 | > 15 | > 15
COCCn1c(SCC(=O)Nc2cc(C(F)(F)F)ccc2Cl)nc2c(c1=O)SC(C)C2 (configuration not stated) | 0.568 | > 15
COc1cc(-c2nc(-c3ccccc3)c(-c3ccccc3)[nH]2)cc(OC)c1OC | > 15 | > 15
CCCN(CCC)CCCNC(=O)c1ccc2c(Cl)c3c(nc2c1)CCCC3 | > 15 | > 15
Cc1ccc(Oc2c(C(F)(F)F)oc3c(CN4CCN(C)CC4)c(O)ccc3c2=O)cc1 | 1.22 | 1.43
Cc1cc(Nc2ccc(C)c(F)c2)n2ncnc2n1 | > 15 | > 15
C[n+]1ccc(/C=C/c2ccc3c(c2)OCO3)cc1 | 2.39 | 3.47
Oc1ccc(C(c2ccc(O)cc2)C(Cl)(Cl)Cl)cc1 | 3.6 | 3.95
O=C(N/N=C/c1cc(Br)cc([N+](=O)[O-])c1O)NC12CC3CC(CC(C3)C1)C2 | 0.959 | > 15
COc1ccc2c(ccc(/C=C3\C=CC=CN3C)[n+]2C)c1 | 0.842 | 1.17
CCCN1CCN(CCCNC(=O)c2ccc3c(c2)sc2nc(-c4ccc(OC)cc4)cn23)CC1 | > 15 | 0.839
C=CC[n+]1c(C)n(N)c2ccccc21 | > 15 | > 15
